Consider 6 compounds from paper PMC3241989, “ADP Regulates SNF1, the Saccharomyces cerevisiae Homolog of AMP-Activated Protein Kinase” (Cell Metabolism, 2011).

The target of experiment [1] is T1, SNF1 complex (Snf1(1-633)Gal83(1-417)Snf4(1-322)) (Saccharomyces cerevisiae, UniProt P12904).
T1 construct: full-length heterotrimer, His-tagged, expressed in E. coli, nickel-Sepharose; phosphorylated on Snf1 Thr210 by CaMKKbeta; with Carbon catabolite-derepressing protein kinase; SNF1 protein kinase subunit beta-3
T1 sequence (P12904 1-322): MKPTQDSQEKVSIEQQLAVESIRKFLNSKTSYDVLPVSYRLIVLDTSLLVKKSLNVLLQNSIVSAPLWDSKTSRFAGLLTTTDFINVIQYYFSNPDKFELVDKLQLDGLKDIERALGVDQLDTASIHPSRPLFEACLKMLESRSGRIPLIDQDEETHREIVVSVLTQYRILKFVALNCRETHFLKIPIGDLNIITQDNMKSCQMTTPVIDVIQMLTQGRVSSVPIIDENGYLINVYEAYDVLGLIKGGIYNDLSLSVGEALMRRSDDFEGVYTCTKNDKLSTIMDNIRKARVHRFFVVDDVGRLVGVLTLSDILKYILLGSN
T1 sequence (P06782 1-633 partner): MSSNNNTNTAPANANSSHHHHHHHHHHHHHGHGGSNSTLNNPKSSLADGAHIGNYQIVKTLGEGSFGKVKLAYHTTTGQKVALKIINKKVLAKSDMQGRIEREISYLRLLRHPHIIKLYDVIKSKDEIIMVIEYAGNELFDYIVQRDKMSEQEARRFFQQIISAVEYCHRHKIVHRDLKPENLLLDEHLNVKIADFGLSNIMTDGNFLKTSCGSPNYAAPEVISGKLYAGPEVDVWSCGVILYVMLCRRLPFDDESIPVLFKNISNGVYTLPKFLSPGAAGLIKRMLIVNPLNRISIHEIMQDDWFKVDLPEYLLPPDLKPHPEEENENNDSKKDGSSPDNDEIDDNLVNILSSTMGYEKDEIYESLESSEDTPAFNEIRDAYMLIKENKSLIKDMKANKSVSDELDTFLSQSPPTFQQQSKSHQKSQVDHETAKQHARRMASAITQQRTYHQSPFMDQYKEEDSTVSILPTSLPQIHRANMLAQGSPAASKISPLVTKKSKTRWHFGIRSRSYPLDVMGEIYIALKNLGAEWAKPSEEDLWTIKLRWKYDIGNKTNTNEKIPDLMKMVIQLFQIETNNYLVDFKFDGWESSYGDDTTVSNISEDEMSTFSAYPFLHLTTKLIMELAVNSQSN
T1 sequence (Q04739 1-417 partner): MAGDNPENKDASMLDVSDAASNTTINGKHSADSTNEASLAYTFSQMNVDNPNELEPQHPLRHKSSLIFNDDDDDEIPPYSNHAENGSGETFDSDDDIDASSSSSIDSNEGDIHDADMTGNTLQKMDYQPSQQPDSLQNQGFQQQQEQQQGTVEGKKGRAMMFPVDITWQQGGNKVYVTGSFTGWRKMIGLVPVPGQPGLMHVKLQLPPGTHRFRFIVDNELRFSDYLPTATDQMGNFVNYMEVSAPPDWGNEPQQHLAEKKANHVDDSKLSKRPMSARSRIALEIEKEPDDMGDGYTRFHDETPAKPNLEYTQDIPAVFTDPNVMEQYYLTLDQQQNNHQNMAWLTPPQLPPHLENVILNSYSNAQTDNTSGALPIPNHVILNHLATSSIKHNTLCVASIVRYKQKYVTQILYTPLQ
Description: fluorescence competition against NADH. The experiment is classed as binding. To be noted: phosphorylated SNF1, 20°C, 50 mM Tris pH 8, 100 mM NaCl, 1 mM TCEP.

For experiment [2], the target named is T2, regulatory fragment of SNF1 (Snf4(1-322)Sip2(304-415)Snf1(457-633)) (Saccharomyces cerevisiae, UniProt P12904).
T2 construct: C-terminal domains of Snf1 and Sip2 with full-length Snf4 (1-322; b14 prints 1-332), tricistronic E. coli expression, His-tag removed with PreScission protease; with Carbon catabolite-derepressing protein kinase; SNF1 protein kinase subunit beta-2
T2 sequence (P12904 1-322): T1 sequence (P12904 1-322)
T2 sequence (P34164 304-415 partner): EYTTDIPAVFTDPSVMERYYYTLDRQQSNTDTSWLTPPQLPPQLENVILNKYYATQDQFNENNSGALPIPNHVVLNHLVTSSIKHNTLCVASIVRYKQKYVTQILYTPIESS
T2 sequence (P06782 457-633 partner): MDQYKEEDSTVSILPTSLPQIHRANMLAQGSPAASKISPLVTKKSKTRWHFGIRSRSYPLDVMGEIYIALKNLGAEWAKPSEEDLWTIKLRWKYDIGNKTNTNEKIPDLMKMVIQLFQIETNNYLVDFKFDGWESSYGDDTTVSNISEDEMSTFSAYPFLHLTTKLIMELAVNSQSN
Put plainly: X-ray crystallography, crystal soak. The experiment is classed as binding. To be noted: site 4 of Snf4.

Experiment [3] has as its target T1, SNF1 complex (Snf1(1-633)Gal83(1-417)Snf4(1-322)). Description: protection of Snf1 phospho-Thr210 against dephosphorylation by PP2C (western blot). To be noted: read-out: half-maximal effect. It is filed as biochemical. Background: In western blotting, separated proteins are transferred to a membrane and probed.
Experiment [4] shares this target. Description: fluorescence titration of coumarin nucleotide with SNF1. To be noted: read-out: Kd,I. It is filed as binding.
Setting [5] is: no Mg, tight site, competitive with NADH, error is SD, read-out: Kd (μM) / Versus C-AXPs.

Turning to `Nc1ncnc2c1ncn2[C@@H]1O[C@H](COP(=O)(O)OP(=O)(O)O)[C@@H](O)[C@H]1O` [ADP], the Kd in experiment [1] (setting [5]) was determined as 72 µM. In addition, the “X-ray crystallography, crystal soak” value in experiment [2] is “strong, well-resolved electron density for AMP, ADP, and NADH”. Moreover, the EC50 in experiment [3] is around 500 µM.
On to `Nc1ncnc2c1ncn2[C@@H]1O[C@H](COP(=O)(O)O)[C@@H](O)[C@H]1O` [AMP], for which, in experiment [2], the “X-ray crystallography, crystal soak” value is “strong, well-resolved electron density for AMP, ADP, and NADH”.
Turning to `Nc1ncnc2c1ncn2[C@@H]1O[C@H](COP(=O)(O)OP(=O)(O)OP(=O)(O)O)[C@@H](O)[C@H]1O` [ATP], in experiment [1] (setting [5]), the Kd worked out at 120 µM.
For the compound `CCN(CC)c1ccc2cc(C(=O)N[C@H]3[C@@H](O)[C@H](n4cnc5c(N)ncnc54)O[C@@H]3COP(=O)(O)OP(=O)(O)O)c(=O)oc2c1` [C-ADP, 3′-(7-diethylaminocoumarin-3-carbonylamino)-3′-deoxyadenosine 5′ diphosphate], in experiment [4], the Kd was 9 µM.
Regarding `NC(=O)C1=CN([C@@H]2O[C@H](COP(=O)(O)OP(=O)(O)OC[C@H]3O[C@@H](n4cnc5c(N)ncnc54)[C@H](O)[C@@H]3O)[C@@H](O)[C@H]2O)C=CC1` [NADH], the “X-ray crystallography, crystal soak” value in experiment [2] was “strong, well-resolved electron density for AMP, ADP, and NADH”.
For the compound `NC(=O)c1ccc[n+]([C@@H]2O[C@H](COP(=O)(O)OP(=O)(O)OC[C@H]3O[C@@H](n4cnc5c(N)ncnc54)[C@H](O)[C@@H]3O)[C@@H](O)[C@H]2O)c1` [NAD^+], in experiment [1] (read-out: Kd), the Kd was above 250 µM.
